# Legend:
# recombinant human Casp2 = molecular target: T1, recombinant human Casp2 (Homo sapiens, UniProt P42575); assay: Enzyme mechanistic studies (Ki, k3, k3/KI), Caspase-2; type: biochemical; settings: irreversible inhibitors, progress curve method
# T1 sequence (P42575 170-325 limits assumed): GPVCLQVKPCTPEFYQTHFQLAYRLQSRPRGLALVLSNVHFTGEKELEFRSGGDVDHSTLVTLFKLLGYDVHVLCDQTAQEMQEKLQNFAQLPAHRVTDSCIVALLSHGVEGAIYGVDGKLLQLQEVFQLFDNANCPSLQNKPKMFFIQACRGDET
# T1 sequence (P42575 348-452 limits assumed): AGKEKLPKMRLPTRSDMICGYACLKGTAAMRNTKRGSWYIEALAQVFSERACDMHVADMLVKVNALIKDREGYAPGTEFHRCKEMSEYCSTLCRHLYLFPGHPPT
# Description: (§1) For reversible inhibitors, the mechanisms of inhibition were determined by varying substrate and inhibitor concentrations and using Lineweaver−Burk representations to determine the inhibition constants Ki of competitive inhibitors (Ki = [E][I]/[EI]). For suicide inhibitors, inactivation can be represented by the minimum kinetic scheme (Eq. 2), where E and I are the free forms of enzyme and inhibitor, E * I a kinetic chimera of the Michaelis complex and E − I the covalent complex (inactivated enzyme).2 E+I⇄KIE*I→k3E−I
# (§2) KI and k3 are the kinetic constants characterizing the inactivation process and the k3/KI ratio is an index of the inhibitory potency. The first-order rate constant, k3, and the apparent dissociation constant, KI, were determined for Caspase-2 and -3 using the progress curve method. Briefly, the enzyme activities were measured continuously for 120 min. To determine the kinetic parameters, progress curves were obtained at several inhibition concentrations using fixed substrate concentration. The product released for each inhibitor concentration was plotted versus the time following Eq. 3 where the constant π depended on [I]’, a modified inhibitor concentration due to substrate competition, according to Eq. 4. [I]’ is defined by Eq. 5, where KM was Michaelis constant for the enzymatic hydrolysis of the appropriate fluorogenic substrate. The ratio k3/KI was obtained by fitting the experimental data to the equations (F.U., fluorescence unit):3 F.U.=∫0tvidt+F.U0−vo×e^−π×t/π+F.U.0 4 π=k3×[I]^′/KI+[I]^′ 5 [I]^′=[I]/1+S/KM
# Linear and nonlinear regression fits of the experimental data to the equations were performed with KaleidaGraph software. The experimental conditions were [Caspase-2]0 = 0.2 nM, [Ac-VDVAD-AMC]0 = 25 µM and [Caspase-3]0 = 0.1 nM, [Ac-DEVD-AMC]0 = 10 µM; [I]0 = 0–100 µM.
# recombinant human Casp3 = molecular target: T2, recombinant human Casp3 (Homo sapiens, UniProt P42574); assay: Enzyme mechanistic studies (Ki, k3, k3/KI), Caspase-3; type: biochemical; settings: irreversible inhibitors, progress curve method
# T2 sequence (P42574 29-175 limits assumed): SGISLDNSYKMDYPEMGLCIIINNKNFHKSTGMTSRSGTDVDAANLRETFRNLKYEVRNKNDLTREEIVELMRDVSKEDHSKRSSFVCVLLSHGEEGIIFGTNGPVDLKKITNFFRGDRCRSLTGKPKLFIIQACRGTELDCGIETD
# T2 sequence (P42574 176-277 limits assumed): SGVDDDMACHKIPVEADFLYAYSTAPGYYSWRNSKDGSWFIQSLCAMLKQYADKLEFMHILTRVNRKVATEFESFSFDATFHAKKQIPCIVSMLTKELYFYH
# Description: as §1, §2
# Linear and nonlinear regression fits of the experimental data to the equations were performed with KaleidaGraph software.
# [1] = design: method as in PMID 21881605; settings: cited from earlier work
# [2] = test system: Molt4 lymphoid human cells; assay: Panobistat (LBH589)-induced cell death in Molt4 cells (propidium iodide, flow cytometry); type: cell-based; settings: Molt4, 1 h pretreatment (30 µM or indicated doses), 25 nM LBH589 24 h
# Description: (§3) HeLa cells (obtained from ATCC) were cultured in Dulbecco’s Modified Eagle Medium (DMEM, High Glucose, GlutaMAX™, Pyruvate) supplemented with antibiotics and 10% fetal calf serum (FCS) (Gibco, Life Technologies) and maintained in T75 Flasks at 1 × 10^6 cells per flask. Twenty-four hours before treatments, HeLa cells were transferred to 6-well plates (8 × 10^4 cells/well). The lymphoblastoid cell line Molt4cl8 was a gift from Dr. Bernard Krust (Inserm, University Paris 5) and was cultured in RPMI 1640 Glutamax medium supplemented with Hepes, antibiotics, and 10% FCS. HEK293 cells were obtained from ATCC (CRL-1573) and cultured in DMEM with Glutamax and 25 mM glucose (Life Technologies) supplemented with 10% FCS and antibiotics. For cell death induction, the following agents were added to cell cultures: Vincristine (Sigma) and Panobistat (LBH589; Selleck). Cell death was analyzed using fluorescence microscopy (Axio-observer Z1, Zeiss; equipped with CCD camera CoolsnapHQ2, Ropert Scientific) and cytofluorometry (MACSQuant® VYB; Miltenyi Biotec, Bergisch Gladbach, Germany) after labeling with propidium iodide (1 µg/mL; 10 min; 37 °C; Life Technologies) and Hoechst 33342 (1 µg/mL; 5 min; RT; Sigma).
# Fig. 5 LJ2 inhibits cell death induced by microtubule destabilization and hydroxamic acid-based deacetylase (HDAC) inhibition. a Effect of the irreversible Caspase-2 inhibitors LJ2 against vincristine-induced cell death. HeLa cells were pretreated for 1 h with the indicated doses of LJ2, Q-VD-OPh, or Q-LETD-OPh, then treated with vincristine (VCR) as in Fig. 2, then incubated with propidium iodide at 2 μg/mL for 10 min and analyzed by flow cytometry. […] Molt4 lymphoid human cells where were pretreated for 1 h with 30 µM of LJ2, Q-VD-OPh, or Belnacasan (VX-765), then treated for 24 h with 25 nM of LBH589, then incubated with propidium iodide as in (a) and analyzed by flow cytometry. […] Molt4 cells were treated as in (b) with the indicated doses of LJ2 or Q-VD-OPh and analyzed by flow cytometry. […]
# [3] = design: method as in PMID 31870950, PMID 31887369; settings: cited from earlier work
# HeLa cells = assay: Vincristine-induced HeLa cell death (propidium iodide, flow cytometry); type: cell-based, human; settings: 1 h pretreatment, 20 nM vincristine 44 h
# Description: as §3
# Fig. 2 q33 and h33 are protective against the cytocidal effect of Vincristine. a Vincristine induces HeLa cell death. Cells were incubated for 44 h at 37 °C with 20 nM Vincristine (VCR), then incubated with propidium iodide at 2 μg/mL for 10 min and analyzed by flow cytometry to quantify plasma membrane permeabilization. Histograms show fluorescence intensity detected by flow cytometry (one representative experiment) in the presence (VCR) or Absence (Co.) of Vincristine. % of propidium iodide-positive cells are indicated for both conditions. b Dose–response of Vincristine-induced cell death. HeLa cells were incubated and treated as in (a) with the indicated doses of Vincristine (VCR) and analyzed by flow cytometry. […] Representative fluorescence microscopy micrographs of cells treated for 44 h with 20 nM vincristine (VCR) or not (Co.) and stained with Hoechst 33342. Vincristine induces progressive nuclear changes with first condensed nuclei (arrows) and then apoptotic bodies (dashed arrow). d Broad-spectrum irreversible caspase inhibitors prevent vincristine-induced cell death. HeLa cells were pretreated for 1 hr with the indicated broad-spectrum irreversible caspases inhibitors (z-VAD(OMe)-fmk at 30 μM, Q-VD-OPh 30 μM, Emricasan 10 μM, or the negative control Q-VE-OPh 30 μM), then treated with vincristine as in panel (a), and analyzed by flow cytometry. Histograms show the mean ± SD of 3 independent experiments (***p value < 0.001). e Effect of the reversible Caspase-2 inhibitors q33 and h33 against vincristine-induced cell death. HeLa cells were pretreated for 1 h with the indicated doses of q33 or h33, then treated with vincristine as in panel a, and analyzed by flow cytometry. Histograms show the mean ± SD of three independent experiments (*p value < 0.1). TEXT PRINTED IN THE PICTURE: (a) VCR: 39,5 % DOUBTS OF THE COPYIST ABOUT THIS PICTURE: Panel a: the picture prints no measure beside "39,5 %" and "4.1%". I assigned 39,5 % to VCR only because it stands by the grey VCR peak. / Panel a: "4.1%" seems to belong to the untreated control (Co.). That is not a substance, so it is left out.
# Fig. 5 LJ2 inhibits cell death induced by microtubule destabilization and hydroxamic acid-based deacetylase (HDAC) inhibition. a Effect of the irreversible Caspase-2 inhibitors LJ2 against vincristine-induced cell death. HeLa cells were pretreated for 1 h with the indicated doses of LJ2, Q-VD-OPh, or Q-LETD-OPh, then treated with vincristine (VCR) as in Fig. 2, then incubated with propidium iodide at 2 μg/mL for 10 min and analyzed by flow cytometry. Histogram data are mean ± SD (n = 3, *p value < 0.01). b Effect of Caspases-inhibitors against Panobistat (LBH589)-induced cell death. […]
compound,measurement,setting,value
"COC(=O)CC(NC(=O)[C@H](C)NC(=O)C(NC(=O)[C@H](CC(=O)OC)NC(=O)[C@@H](NC(=O)c1ccc2ccccc2n1)C(C)C)C(C)C)C(=O)COc1c(F)cccc1F (stereo in doubt) [TRP601, Quinolin-2-carbonyl-VD(OMe)VAD(OMe)-CH2-O(2,6F2)Ph, reference compound]",Casp2 k3,recombinant human Casp2,"5,56 ms^−1"
same,KI (inactivation),recombinant human Casp2,0.378 µM
same,Casp3 k3,recombinant human Casp3,"4,24 ms^−1"
same,Casp3 k3/KI,recombinant human Casp3,25 126 M^−1 s^−1
same,KI (inactivation),recombinant human Casp3,0.209 µM
same,neuroprotection,[1]; after intraperitoneal and intraveinous administration,confer neuroprotection
same,Casp2 in the brain,[1],inhibit Casp2 in the brain
same,toxicity in regulatory rodent and non-rodent studies,[1],non-toxic
"CCO[C@@H]1OC(=O)C[C@@H]1NC(=O)[C@@H]1CCCN1C(=O)[C@@H](NC(=O)c1ccc(N)c(Cl)c1)C(C)(C)C [Belnacasan, (S)-1-((S)-2-{[1-(4-amino-3-chloro-phenyl)-methanoyl]-amino}-3,3-dimethyl-butanoyl)-pyrrolidine-2-carboxylic acid ((2R,3S)-2-ethoxy-5-oxo-tetrahydro-furan-3-yl)-amide]",effect against Panobistat (LBH589)-induced cell death,[2],did not affect cell death
C[C@H](NC(=O)C(=O)Nc1ccccc1C(C)(C)C)C(=O)N[C@@H](CC(=O)O)C(=O)COc1c(F)c(F)cc(F)c1F [Emricasan],efficacy in large clinical phase 3 studies for the treatment of NASH,[3],failed to demonstrate efficacy
same,toxicity on chronic administration in humans,[3],not toxic nor carcinogenic
same,inhibition at 10 µM,"HeLa cells; Homo sapiens, inhibitor 10 µM",95%
CC(C)[C@H](NC(=O)c1ccc2ccccc2n1)C(=O)N[C@@H](CC(=O)O)C(=O)COc1c(F)cccc1F [Q-VD-OPh],effect against Panobistat (LBH589)-induced cell death,[2],strongly inhibited cell death
same,inhibition of vincristine-induced cell death,HeLa cells; inhibitor 30 µM,> 90%

# From PMC9666555, “Genuine selective caspase-2 inhibition with new irreversible small peptidomimetics” (Cell Death & Disease, 2022)
